Measured values from patent US7322965B2, “Infection-resistant medical devices” (priority 2002, dated 2008).
Converted amounts (≈) assume the structure as drawn.

Experiments:
S. aureus UC-20206 = assay: Determination of minimum inhibitory concentration (microdilution); format: cell-based; settings: Staphylococcus aureus, UC20206, 18 h
[1] = Resistance to thermal decomposition; format: physicochemical
Source text: The medical device can be, for example, a suture, orthopedic appliance, stent, catheter, guidewire, shunt (e.g., hemodialysis shunt or cerebrospinal shunt), prosthesis (e.g., prosthetic heart valve or prosthetic joint), cardiac pacemaker, neuronal stimulator, or vascular graft. The medical device can be made of biomaterials (i.e., biologically-compatible materials known to those skilled in the art, such as metal, polymeric, or ceramic materials). The antimicrobial agent can be incorporated into the medical device according to methods known to those skilled in the art, such as by immersing the medical device in a solution (e.g., an aqueous solution) containing the antimicrobial agent, or, for example, by methods described in one of the following references: U.S. Pat. No. 3,987,797; U.S. Pat. No. 4,563,485; U.S. Pat. No. 4,875,479; U.S. Pat. No. 4,946,870; U.S. Pat. No. 5,306,289; U.S. Pat. No. 5,584,877; U.S. Pat. No. 5,607,685; U.S. Pat. No. 5,788,979; U.S. Pat. No. 6,143,037; U.S. Pat. No. 6,238,687; WO00/56283; and WO 01/28601, the disclosures of which are incorporated herein by reference. The medical device can include a polymeric material, and the polymeric material can be co-extruded with the antibacterial agent. […]

## CC(=O)NC[C@H]1CN(c2ccc(N3CCOCC3)c(F)c2)C(=O)O1 [Linezolid, (S)-N-[[3-[3-fluoro-4-(4-morpholinyl)phenyl]-2-oxo-5-oxazolidinyl]methyl]acetamide]
S. aureus UC-20206
  MIC: 4 µg/mL (≈ 11.9 µM)
[1]
  temperature up to which resistant to thermal decomposition: at least 121 °C
